Results published in paper PMC5513091, “A novel Alzheimer’s disease drug candidate targeting inflammation and fatty acid metabolism” (Alzheimer's Research & Therapy, 2017).

Key:
protein kinases = assay: Protein Kinase Screen; assay type: binding
From the text: Before undertaking animal experiments, it is important to determine if a new drug candidate has a chance for further clinical development by determining its pharmacological properties of bioavailability and brain penetrance as well as predicted safety.

CYP 2D6 = CYP 2D6 (Homo sapiens, UniProt P10635); assay: CYP inhibition; assay type: in vitro ADME
[1] = Free feeding CAD-31 plasma and brain levels in mice; assay type: in vivo
Method: (§1) Sprague-Dawley rats had free access to food and water. CAD-31 was given by gavage to rats at 20 mg/kg in corn oil and intravenously in 15% HS 15/PBS. Whole-blood samples were collected from the jugular vein at every time point and brain collected after 20-ml saline perfusion. CAD-31 was extracted with acetonitrile and compared with standards on a TSQ Quantiva™ Triple Quadrupole Mass Spectrometer (Thermo Scientific, Waltham, MA, USA). For the mouse feeding studies, mice had free access to food containing 200 ppm CAD-31. Blood was collected by heart puncture, and the brain concentration was determined as with rats.

APPswe/PS1∆E9 mice = assay: Elevated plus maze; assay type: in vivo; conditions: AD mice fed 200 ppm in chow for 3 months from 10 months of age
Method: The APPswe/PS1∆E9-transgenic mice were characterized previously. Line 85 mice carry two transgenes, the mouse/human chimeric APPswe, linked to Swedish familial AD and human PS1∆E9. At 10 months of age, female transgenic mice were fed a defined diet (Harlan Teklad; Envigo, Indianapolis, IN, USA) with and without CAD-31 (200 ppm, approximately 10 mg/kg/day). Treatment continued for 3 months, followed by behavior testing and tissue harvesting.
The elevated plus maze is used to analyze the anxiety response of mice. This test relies upon the tendency of mice to have a fear of heights and to navigate toward dark, enclosed spaces and remain there. Our maze is made of gray plastic and consists of four arms (two open without walls and two enclosed by 15.25-cm-high walls) that are 30 cm long and 5 cm wide in the shape of a plus sign. A video tracking system (EthoVision; Noldus Information Technology) is used to automatically collect behavioral data. Mice are habituated to the room 24 h before testing. Mice are also habituated to the maze for 2 minutes before testing by placing them in the center of the maze and blocking entry to the arms. Mice were tested in the maze for a 5-minute period. The anxiety of mice was measured by comparing the time spent in the open arms with time spent in the closed arms. Statistics were computed using GraphPad InStat software.

Caco 2 = Caco 2 Transport; assay type: in vitro ADME
[2] = system: HT22 cells expressing the brain-derived neurotrophic factor (BDNF) receptor transmembrane receptor kinase B; assay: BDNF-like activity (rescue from serum starvation); assay type: cell-based; conditions: Mus musculus, HT-22, read-out: Half-maximal effective concentration, BDNF-like activity
Method: (§2) The various phenotypic screening assays were conducted as previously described. Briefly, HT-22, primary cortical neurons, or MC65 was plated and exposed to the different environmental stresses. Cells were treated with varying concentrations of CAD-31, and half-maximal effective concentration (EC50) was determined on the basis of cell viability.
(§3) • An assay that mimics the dramatic loss of neurotrophic support in the old brain is the trophic factor withdrawal assay. Primary embryonic day 18 cortical cells are plated at low density in serum-free medium. At low density, the cells die within 2 days; they can be rescued by combinations of neurotrophic growth factors, but not by one alone ([19] and unpublished data). […] BDNF is a molecule that is also involved in promoting memory and neurogenesis and is reduced in the brain with age and in AD, as well as in other neurological disorders. BDNF has long been considered a drug target for AD [23]. […] A reduction in GSH is a common denominator of old age and essentially all chronic central nervous system (CNS) diseases. J147 and CAD-31 both effectively reduce oxidative stress, with EC50 of 6 nM and 20 nM, respectively. • CAD-31 also prevents loss of energy metabolism that leads to neuron cell death in an in vitro ischemia model. […]

[3] = system: hippocampal gene expression; assay: Whole-transcriptome RNA-sequencing of hippocampus; assay type: in vivo, mice
Method: RNA was isolated from the hippocampus using the RNeasy Plus Universal Mini Kit (QIAGEN, Valencia, CA, USA). RNA sequencing (RNA-seq) libraries were prepared using the TruSeq Stranded mRNA Sample Prep Kit (Illumina, San Diego, CA, USA) according to the manufacturer’s instructions. Briefly, polyadenylation RNA was selected using oligo(dT) beads. Messenger RNA was then fragmented and reverse-transcribed. Complementary DNA (cDNA) was end-repaired, adenylated, and ligated with Illumina adapters with indexes. Adapter-ligated cDNA was then amplified. Libraries were pooled and sequenced single-end 50 bp on the HiSeq 2500 platform (Illumina). Sequencing reads were quality-tested using FastQC and aligned to the mm10 mouse genome using STAR Aligner version 2.4k. Mapping was carried out using default parameters (up to ten mismatches per read and up to nine multimapping locations per read). Raw gene expression was quantified across all gene exons by RNA-seq using the top-expressed isoform as a proxy for gene expression, and differential gene expression was carried out using the edge R package version 3.6.8, using replicates to compute within-group dispersion. p Values are adjusted to control the false discovery rate (FDR) by the method of Benjamini and Hochberg. Differentially expressed genes were defined as having an FDR <0.05 and a log2 fold change >1. […]

HT22 = assay: In vitro ischemia; assay type: cell-based; conditions: Mus musculus, HT-22, read-out: Half-maximal effective concentration, In vitro ischemia
Method: as §2, §3

Pharmacokinetics in rats = assay type: in vivo, Sprague-Dawley rats
Method: as §1

[4] = system: human neural precursor cells (NPCs); parameters: method as in PMID 27149904; conditions: compared with J147; cited from earlier work
[5] = mice fed ad libitum, 200 ppm in chow (about 10 mg/kg/day)

Chain of CYP 2D6 (P10635 whole entry): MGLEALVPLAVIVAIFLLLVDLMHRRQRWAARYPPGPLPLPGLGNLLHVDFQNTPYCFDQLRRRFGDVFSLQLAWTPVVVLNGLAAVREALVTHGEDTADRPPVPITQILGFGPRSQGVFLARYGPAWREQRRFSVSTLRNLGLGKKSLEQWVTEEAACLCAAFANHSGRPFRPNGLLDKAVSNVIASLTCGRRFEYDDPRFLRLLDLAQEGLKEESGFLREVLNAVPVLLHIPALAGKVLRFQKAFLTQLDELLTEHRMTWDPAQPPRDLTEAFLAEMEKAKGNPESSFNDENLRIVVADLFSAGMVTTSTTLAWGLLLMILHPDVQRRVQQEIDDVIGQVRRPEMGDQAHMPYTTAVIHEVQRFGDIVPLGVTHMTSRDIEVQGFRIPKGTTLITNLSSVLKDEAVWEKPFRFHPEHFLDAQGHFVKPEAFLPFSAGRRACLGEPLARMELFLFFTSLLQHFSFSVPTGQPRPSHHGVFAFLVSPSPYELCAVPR

For Cc1ccc(N(/N=C/c2cccc(OC(F)(F)F)c2)C(=O)C(F)(F)F)c(C)c1 [CAD-31], the “interaction with known protein kinases” value (protein kinases; 10 μM) was “did not interact”, the EC50 (protein kinases; all kinases) was greater than 10 µM and the EC50 at 10 µM (CYP 2D6) was greater than 10 µM. For the same compound, the “maximum brain concentration, free-fed” value [1, 5] was 53 nM, the “maximum plasma concentration, free-fed” value [1, 5] was 82 nM and the “Free-Fed ~10 mg/kg/day Brain” value ([1]; mice, 200 ppm in food) was 0.053 µM. The “Free-Fed ~10 mg/kg/day Plasma” value ([1]; mice, 200 ppm in food) was 0.082 µM, the “time spent on the open arm (disinhibition phenotype)” value (APPswe/PS1∆E9 mice) was “completely rescued to age-matched WT levels” and the “Caco 2 Transport” value (Caco 2) was “High”. For the same compound, the EC50 [2] was 0.095 µM, the “number of significant genes changed” value ([3]; AD model, CAD-31-treated vs AD) was 730 and the “number of significant genes changed” value ([3]; WT model, CAD-31-treated vs control) was 29. The EC50 (HT22) was 0.047 µM, the “PO Max Brain, concentration” value (Pharmacokinetics in rats; 20 mg/kg by gavage in corn oil) was 3.0 µM and the “PO Max Brain, time” value (Pharmacokinetics in rats; 20 mg/kg by gavage in corn oil) was 8 h. The “PO Max Plasma, concentration” value (Pharmacokinetics in rats; 20 mg/kg by gavage in corn oil) was 1.7 µM, the “PO Max Plasma, time” value (Pharmacokinetics in rats; 20 mg/kg by gavage in corn oil) was 8 h and the Kp at 8 h (Pharmacokinetics in rats; Sprague-Dawley, rat, brain and plasma, po, 20 mg/kg by gavage, at 8 h, read-out: brain-to-plasma ratio) was 2.8. The half-life (Pharmacokinetics in rats; Sprague-Dawley, rat, in vivo, 20 mg/kg) was 4.3 h, the bioavailability (Pharmacokinetics in rats; Sprague-Dawley, rat, plasma, oral, 20 mg/kg) was 31% and the neurogenic activity [4] was “enhanced neurogenic activity over J147”.
